According to patent US9023789B2, “Amylin analogs and pharmaceutical compositions thereof” (Novo Nordisk A/S, priority 2012, dated 2015):
≈ marks a conversion by molar mass, not a printed value. Like-named read-outs stand apart in the source and are kept apart here. Numbered stars: 1 amine (or outer) side, 2 acyl side, 3 side chain; on linkers, the order of the positions; unused ones are H or OH. Bridge positions count the residues as written; N and C are the ends. Side chains are listed from the residue outwards. Peptide text beside a SMILES is read from it. * marks the point of attachment. C20 diacid = O=C(O)CCCCCCCCCCCCCCCCCCC(=O)*; γGlu = O=C(O)[C@H](CCC(=O)[*:2])N[*:1]; AEEA = NCCOCCOCC(=O)O

Tests used:
[1] = target: T1, human amylin 3(a) receptor (human calcitonin receptor + RAMP-3) in BHK570 cells (Homo sapiens, UniProt O60896+P30988); test: ASSAY (II)a functional assay, human amylin receptor (CRE luciferase); assay type: cell-based; details: for EC50: human amylin receptor functional potency, assay (II), read-out: hAmylin-R funct. EC50
T1 construct: expressed in transfected cells
Summary of the method: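 Receptor activation is measured as cAMP-driven CRE-luciferase expression in BHK cells expressing the calcitonin receptor, with RAMP-3 co-expressed to form the amylin 3(a) receptor. Cells are exposed to compound for 3 hours at 37° C, and luciferase is then quantified by luminescence.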

[2] = ASSAY (IV) determination of solubility; assay type: physicochemical
Summary of the method: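 UPLC read-out of polypeptide concentration after centrifugation. Samples: aqueous polypeptide stock ([…]) + 100 mM buffer 1:1, glycylglycine pH 3.0–5.0 or bistrispropane pH 6.0–8.0; 18 h, RT.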

[3] = target: T2, human amylin receptor (membranes from Amylin 3(a)/CRE-luc cells) (Homo sapiens, UniProt O60896+P30988); test: ASSAY (V) binding to the human amylin receptor (SPA, 125I-rat amylin); details: for IC50: Table 4, read-out: hAmylin-R bind IC50;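 for all read-outs here: competition binding of cell membranes (35 ng/µL) mixed with SPA beads in 384-well plates at 40 µL total volume, read by scintillation counting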
T2 construct: expressed in transfected cells
T2 sequence (P30988 25-474): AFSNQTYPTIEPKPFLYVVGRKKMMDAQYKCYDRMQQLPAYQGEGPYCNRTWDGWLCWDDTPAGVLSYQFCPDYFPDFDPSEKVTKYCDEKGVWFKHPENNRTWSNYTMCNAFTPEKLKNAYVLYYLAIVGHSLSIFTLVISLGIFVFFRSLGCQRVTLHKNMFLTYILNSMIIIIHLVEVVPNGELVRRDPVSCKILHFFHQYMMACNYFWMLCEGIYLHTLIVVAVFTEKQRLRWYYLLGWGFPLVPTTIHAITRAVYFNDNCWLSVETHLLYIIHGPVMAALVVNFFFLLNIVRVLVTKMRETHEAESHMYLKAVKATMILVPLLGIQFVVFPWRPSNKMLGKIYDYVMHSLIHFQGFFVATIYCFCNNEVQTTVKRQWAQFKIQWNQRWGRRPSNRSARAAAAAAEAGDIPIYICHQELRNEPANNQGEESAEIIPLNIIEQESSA
T2 sequence (O60896 24-148 partner): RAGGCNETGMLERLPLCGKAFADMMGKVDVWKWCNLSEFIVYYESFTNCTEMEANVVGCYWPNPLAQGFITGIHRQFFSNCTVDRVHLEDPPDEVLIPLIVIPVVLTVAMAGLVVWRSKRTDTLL

[4] = target: T3, rat amylin receptor (rat calcitonin receptor + rat RAMP 3) (Rattus norvegicus, UniProt P32214+Q9JJ73); test: ASSAY (VI) binding to the rat amylin receptor; details: for IC50: binding to rat amylin receptor, read-out: rAmylin-R bind IC50
T3 construct: expressed in transfected cells; host or cells: BHK tk'ts 13 (transient, FuGENE 6), membranes
T3 sequence (P32214 25-479 isoform P32214-2 limits assumed): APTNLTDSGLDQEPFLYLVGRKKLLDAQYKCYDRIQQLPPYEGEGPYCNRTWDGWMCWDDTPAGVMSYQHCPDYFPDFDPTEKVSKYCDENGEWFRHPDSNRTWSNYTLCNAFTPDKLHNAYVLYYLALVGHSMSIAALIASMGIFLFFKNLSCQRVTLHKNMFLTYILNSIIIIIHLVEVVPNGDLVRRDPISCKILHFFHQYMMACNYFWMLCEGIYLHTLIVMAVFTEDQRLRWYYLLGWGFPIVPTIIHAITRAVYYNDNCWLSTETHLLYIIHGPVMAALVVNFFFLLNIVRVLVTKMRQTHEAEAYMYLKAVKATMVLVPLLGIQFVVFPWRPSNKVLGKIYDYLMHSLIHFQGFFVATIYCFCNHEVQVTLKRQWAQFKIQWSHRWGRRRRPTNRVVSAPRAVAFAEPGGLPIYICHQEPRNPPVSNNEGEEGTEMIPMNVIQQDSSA
T3 sequence (Q9JJ73 23-147 partner): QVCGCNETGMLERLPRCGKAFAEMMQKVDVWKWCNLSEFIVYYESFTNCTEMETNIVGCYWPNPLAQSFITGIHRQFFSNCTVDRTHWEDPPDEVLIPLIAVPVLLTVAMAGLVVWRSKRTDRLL
Summary of the method: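 Membranes for this rat amylin receptor binding assay came from BHK tk′ts 13 cells. The cells were transiently transfected with rat calcitonin receptor using the FuGENE® 6 reagent from Roche, as the manufacturer recommends. The cells were collected approximately 48 hours after transfection, and membranes were then prepared.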

rat calcitonin receptor = target: T4, rat calcitonin receptor (Rattus norvegicus, UniProt P32214); test: ASSAY (VIII) binding to the rat calcitonin receptor; details: Table 7, read-out: rCTR bind IC50
T4 construct: expressed in transfected cells; host or cells: BHK tk'ts 13 (transient, FuGENE 6), membranes
T4 sequence (P32214 25-479 isoform P32214-2 limits assumed): T3 sequence (P32214 25-479 isoform P32214-2 limits assumed)
Summary of the method: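 Receptor source: membranes from transiently transfected BHK tk′ts 13 cells expressing rat calcitonin receptor, collected roughly 48 hours after transfection.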

[5] = hCTR funct. EC50 divided by hAmylin-R funct. EC50
[6] = human functional selectivity: hCTR funct. EC50 / hAmylin-R funct. EC50
[7] = bistrispropane buffer, pH 6.5, read-out: Solubility pH 6.5 Concentration
[8] = bistrispropane buffer, pH 7.5, read-out: Solubility pH 7.5 Concentration
[9] = bistrispropane buffer, pH 6.0, read-out: Solubility pH 6.0 Concentration
[10] = bistrispropane buffer, pH 7.0, read-out: Solubility pH 7.0 Concentration
[11] = bistrispropane buffer, pH 8.0, read-out: Solubility pH 8.0 Concentration
[12] = glycylglycine buffer, pH 3.0, read-out: Solubility pH 3.0 Concentration
[13] = glycylglycine buffer, pH 4.0, read-out: Solubility pH 4.0 Concentration
[14] = glycylglycine buffer, pH 5.0, read-out: Solubility pH 5.0 Concentration
[15] = Table 5, selectivity, hCTR bind IC50 / hAmylin-R bind IC50
[16] = Table 5a, selectivity, hCTR bind IC50 / hAmylin-R bind IC50
[17] = Table 5b, selectivity, hCTR bind IC50 / hAmylin-R bind IC50
[18] = Table 5c, selectivity, hCTR bind IC50 / hAmylin-R bind IC50
[19] = Table 7, human binding selectivity, included for comparison
[20] = Table 7a (preferred compounds), human binding selectivity, included for comparison
[21] = ratio of human calcitonin receptor binding IC50 to human amylin receptor binding IC50
[22] = Table 7, rat binding selectivity, rCTR IC50 / rAmylin-R IC50
[23] = Table 7a (preferred compounds), rat binding selectivity, rCTR IC50 / rAmylin-R IC50
[24] = ratio of rCTR bind IC50 to rAmylin-R bind IC50

Structure (SMILES)	Ratio hCT/hAmylin funct. [1, 5]	EC50 [1]	Ratio hCT/hAmylin funct. [1, 6]	solubility at 18 h [2, 7]	solubility at 18 h [2, 8]	solubility at 18 h [2, 9]	solubility at 18 h [2, 10]	solubility at 18 h [2, 11]	solubility at 18 h [2, 12]	solubility at 18 h [2, 13]	solubility at 18 h [2, 14]	IC50 [3]	Ratio hCT/hAmylin binding [3, 15]	Ratio hCT/hAmylin binding [3, 16]	Ratio hCT/hAmylin binding [3, 17]	Ratio hCT/hAmylin binding [3, 18]	Ratio hCT/hAmylin binding [3, 19]	Ratio hCT/hAmylin binding [3, 20]	Ratio hCT/hAmylin binding [3, 21]	IC50 ([4]; Table 7)	other results
CC[C@H](C)[C@H](NC(=O)[C@H](C)NC(=O)CNC(=O)[C@H](Cc1ccccc1)NC(=O)[C@H](CC(N)=O)NC(=O)[C@@H]1CCCN1C(=O)[C@H](CO)NC(=O)[C@H](CO)NC(=O)[C@H](Cc1c[nH]cn1)NC(=O)[C@H](CCCNC(=N)N)NC(=O)[C@H](CC(C)C)NC(=O)[C@H](Cc1ccccc1)NC(=O)[C@H](C)NC(=O)[C@H](C)NC(=O)[C@H](CC(C)C)NC(=O)[C@H](CCCNC(=N)N)NC(=O)[C@H](CCC(N)=O)NC(=O)[C@@H](NC(=O)[C@H](C)NC(=O)[C@@H]1CSSC[C@H](NC(=O)[C@@H](N)CCCCNC(=O)COCCOCCNC(=O)CC[C@H](NC(=O)CCCCCCCCCCCCCCCCCCC(=O)O)C(=O)O)C(=O)N[C@@H](CC(N)=O)C(=O)N[C@@H]([C@@H](C)O)C(=O)N[C@@H](C)C(=O)N[C@@H]([C@@H](C)O)C(=O)N1)[C@@H](C)O)C(=O)N1CCC[C@H]1C(=O)N[C@@H](CO)C(=O)N[C@@H](CO)C(=O)N[C@H](C(=O)N1CCC[C@H]1C(=O)N[C@H](C(=O)NCC(=O)N[C@@H](CO)C(=O)N[C@@H](CC(N)=O)C(=O)N[C@H](C(=O)N[C@@H](Cc1ccc(O)cc1)C(N)=O)[C@@H](C)O)C(C)C)[C@@H](C)O [Example 72] (H-K([AEEA-γGlu-C20 diacid])CNTATCATQRLAAFLRHSSPNFGAIPSSTPVGSNTY-NH2; disulfide 2-7 (inferred); N-terminus assumed)	44.9	0.106 nM	44.9	≥ 200 µM	≥ 200 µM	≥ 200 µM	≥ 200 µM	194 µM (≈ 866 µg/mL)	≥ 200 µM	≥ 200 µM	≥ 200 µM	0.172 nM	246.6	246.6	246.6	246.6	246.6	246.6	246.6	0.851 nM	Ratio hCT/hAmylin funct. ([1]; hCTR funct. EC50 over hAmylin-R funct. EC50): 44.9; Ratio rCT/rAmylin binding [4, 22]: 259.3; Ratio rCT/rAmylin binding [4, 23]: 259.3; Ratio rCT/rAmylin binding [4, 24]: 259.3; IC50 (rat calcitonin receptor): 221 nM
CC[C@H](C)[C@H](NC(=O)[C@H](C)NC(=O)CNC(=O)[C@H](Cc1ccccc1)NC(=O)[C@H](CC(N)=O)NC(=O)[C@@H]1CCCN1C(=O)[C@H](CO)NC(=O)[C@H](CO)NC(=O)[C@H](Cc1c[nH]cn1)NC(=O)[C@H](CCCNC(=N)N)NC(=O)[C@H](CC(C)C)NC(=O)[C@H](Cc1ccccc1)NC(=O)[C@H](CC(N)=O)NC(=O)[C@H](C)NC(=O)[C@H](CC(C)C)NC(=O)[C@H](CCCNC(=N)N)NC(=O)[C@H](CCC(N)=O)NC(=O)[C@@H](NC(=O)[C@H](C)NC(=O)[C@@H]1CSSC[C@H](NC(=O)[C@@H](N)CCCCNC(=O)COCCOCCNC(=O)CC[C@H](NC(=O)CCCCCCCCCCCCCCCCCCC(=O)O)C(=O)O)C(=O)N[C@@H](CC(N)=O)C(=O)N[C@@H]([C@@H](C)O)C(=O)N[C@@H](C)C(=O)N[C@@H]([C@@H](C)O)C(=O)N1)[C@@H](C)O)C(=O)N1CCC[C@H]1C(=O)N[C@@H](CO)C(=O)N1CCC[C@H]1C(=O)N[C@H](C(=O)N1CCC[C@H]1C(=O)N[C@H](C(=O)NCC(=O)N[C@@H](CO)C(=O)N[C@@H](CC(N)=O)C(=O)N[C@H](C(=O)N[C@@H](Cc1ccc(O)cc1)C(N)=O)[C@@H](C)O)C(C)C)[C@@H](C)O [Example 54] (H-K([AEEA-γGlu-C20 diacid])CNTATCATQRLANFLRHSSPNFGAIPSPTPVGSNTY-NH2; disulfide 2-7; N-terminus assumed)	9.6	0.103 nM	9.6	≥ 200 µM	≥ 200 µM	≥ 200 µM	≥ 200 µM	≥ 200 µM	≥ 200 µM	≥ 200 µM	≥ 200 µM	0.03 nM	146.1	146.1	146.1	146.1	146.1	146.1	146.1	0.049 nM	Ratio rCT/rAmylin binding [4, 22]: 179.4; Ratio rCT/rAmylin binding [4, 23]: 179.4; Ratio rCT/rAmylin binding [4, 24]: 179.4; IC50 (rat calcitonin receptor): 8.79 nM
